Key:
α-D-glucosidase [1] = biological target: T1, α-D-glucosidase (Saccharomyces cerevisiae, UniProt P53341); experiment: Glycosidase inhibition: α-D-glucosidase (yeast); type: biochemical, Saccharomyces cerevisiae (Baker's yeast); conditions: 1 mg/ml; pH 6.0, 20° C
T1 construct: purchased Sigma
Experimental: (§1) Inhibition of the N-linked glycan trimming enzymes alpha-Glucosidases I and II or alpha-Mannosidases I and II are thought to be related to the anti-viral activity of castanospermine (Compound 104) and 1-deoxynojirimycin (Compound 193). […] All enzymes were purchased from Sigma, as were the appropriate p-nitrophenyl substrates. Assays were carried out in microtitre plates. Enzymes were assayed in 0.1M citric acid/0.2M di-sodium hydrogen phosphate (McIlvaine) buffers at the optimum pH for the enzyme. All assays were carried out at 20° C. For screening assays the incubation assay consisted of 10 μl of enzyme solution, 10 μl of inhibitor solution (made up in water at 5 mM) and 50 μl of the appropriate 5 mM p-nitrophenyl substrate (3.57 mM final conc.) made up in McIlvaine buffer at the optimum pH for the enzyme.
(§2) The reactions were stopped with 0.4M glycine (pH 10.4) during the exponential phase of the reaction, which was determined at the beginning of the assay using blanks with water, which were incubated for a range of time periods to measure the reaction rate using 5 mM substrate solution. Endpoint absorbances were read at 405 nm with a Bio-rad microtitre plate reader (Benchmark). Water was substituted for the inhibitors in the blanks.

[2] = system: N-acetyl-β-D-glucosaminidase; experiment: Glycosidase inhibition: N-acetyl-β-D-glucosaminidase; type: biochemical, Bovine kidney; conditions: 1 mg/ml; pH 4.25, 20° C
Experimental: as §1, §2

Naringinase = experiment: Glycosidase inhibition: Naringinase; type: biochemical, Penecillium decumbens; conditions: 1 mg/ml; pH 4.0, 20° C
Experimental: as §1, §2

β-D-glucosidase = experiment: Glycosidase inhibition: β-D-glucosidase; type: biochemical, Almonds (Prunus sp.); conditions: 1 mg/ml; pH 5.0, 20° C
Experimental: as §1, §2

α-D-glucosidase [3] = biological target: T2, α-D-glucosidase (Oryza sativa subsp. japonica, UniProt Q653V7); experiment: Glycosidase inhibition: α-D-glucosidase (rice); type: biochemical, rice (Oryza sativa); conditions: 1 mg/ml; pH 6.0, 20° C
T2 construct: purchased Sigma
T2 sequence (Q653V7 34-885): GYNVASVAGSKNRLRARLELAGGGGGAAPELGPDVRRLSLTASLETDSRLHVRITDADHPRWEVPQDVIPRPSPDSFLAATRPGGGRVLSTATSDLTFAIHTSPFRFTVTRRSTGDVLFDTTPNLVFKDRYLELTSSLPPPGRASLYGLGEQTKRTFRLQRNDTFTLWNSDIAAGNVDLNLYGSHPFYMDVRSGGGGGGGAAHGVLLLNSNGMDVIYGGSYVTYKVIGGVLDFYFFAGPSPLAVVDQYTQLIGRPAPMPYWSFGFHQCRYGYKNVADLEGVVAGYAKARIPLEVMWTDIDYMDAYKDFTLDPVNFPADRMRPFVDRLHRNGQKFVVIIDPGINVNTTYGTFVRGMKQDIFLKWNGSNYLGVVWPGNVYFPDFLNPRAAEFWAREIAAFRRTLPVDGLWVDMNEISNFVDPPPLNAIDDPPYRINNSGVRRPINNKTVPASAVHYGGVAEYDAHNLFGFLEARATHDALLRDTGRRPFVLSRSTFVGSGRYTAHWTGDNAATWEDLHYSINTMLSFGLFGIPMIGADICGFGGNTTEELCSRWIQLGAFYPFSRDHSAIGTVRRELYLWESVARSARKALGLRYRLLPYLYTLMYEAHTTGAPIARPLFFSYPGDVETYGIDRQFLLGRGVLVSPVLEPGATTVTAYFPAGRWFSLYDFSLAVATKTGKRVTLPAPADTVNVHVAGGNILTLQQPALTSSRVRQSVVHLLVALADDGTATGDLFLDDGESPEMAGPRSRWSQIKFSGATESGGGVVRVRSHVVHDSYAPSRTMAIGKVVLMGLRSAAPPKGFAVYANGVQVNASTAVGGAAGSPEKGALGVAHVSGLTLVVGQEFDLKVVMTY
Experimental: as §1, §2

α-L-fucosidase = biological target: T3, α-L-fucosidase (Bos taurus, UniProt Q2KIM0); experiment: Glycosidase inhibition: α-L-fucosidase; type: biochemical, Bovine kidney; conditions: 1 mg/ml; pH 5.5, 20° C
T3 construct: purchased Sigma; host or cells: bovine kidney
T3 sequence (Q2KIM0 23-468): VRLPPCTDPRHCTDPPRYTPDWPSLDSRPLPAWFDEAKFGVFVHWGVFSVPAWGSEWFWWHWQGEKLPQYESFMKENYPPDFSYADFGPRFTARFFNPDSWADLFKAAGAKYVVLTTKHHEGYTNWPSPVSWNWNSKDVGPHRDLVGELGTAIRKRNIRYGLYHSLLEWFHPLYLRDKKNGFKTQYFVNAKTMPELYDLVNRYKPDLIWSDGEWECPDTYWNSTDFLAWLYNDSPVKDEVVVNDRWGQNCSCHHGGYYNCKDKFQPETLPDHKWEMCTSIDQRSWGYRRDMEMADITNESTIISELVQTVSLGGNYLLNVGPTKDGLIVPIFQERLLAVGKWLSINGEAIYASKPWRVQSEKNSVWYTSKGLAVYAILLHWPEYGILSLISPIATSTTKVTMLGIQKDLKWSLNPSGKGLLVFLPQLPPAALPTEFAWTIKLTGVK
Experimental: All enzymes were purchased from Sigma, as were the appropriate p-nitrophenyl substrates. Assays were carried out in microtitre plates. Enzymes were assayed in 0.1M citric acid/0.2M di-sodium hydrogen phosphate (McIlvaine) buffers at the optimum pH for the enzyme. All assays were carried out at 20° C. For screening assays the incubation assay consisted of 10 μl of enzyme solution, 10 μl of inhibitor solution (made up in water at 5 mM) and 50 μl of the appropriate 5 mM p-nitrophenyl substrate (3.57 mM final conc.) made up in McIlvaine buffer at the optimum pH for the enzyme.
as §2

α-D-mannosidase = biological target: T4, α-D-mannosidase (Canavalia ensiformis, UniProt C0HJB3); experiment: Glycosidase inhibition: α-D-mannosidase; type: biochemical, Jack beans (Canavalia ensiformis); conditions: 1 mg/ml; pH 4.5, 20° C
T4 construct: purchased Sigma
T4 sequence (C0HJB3 1-981): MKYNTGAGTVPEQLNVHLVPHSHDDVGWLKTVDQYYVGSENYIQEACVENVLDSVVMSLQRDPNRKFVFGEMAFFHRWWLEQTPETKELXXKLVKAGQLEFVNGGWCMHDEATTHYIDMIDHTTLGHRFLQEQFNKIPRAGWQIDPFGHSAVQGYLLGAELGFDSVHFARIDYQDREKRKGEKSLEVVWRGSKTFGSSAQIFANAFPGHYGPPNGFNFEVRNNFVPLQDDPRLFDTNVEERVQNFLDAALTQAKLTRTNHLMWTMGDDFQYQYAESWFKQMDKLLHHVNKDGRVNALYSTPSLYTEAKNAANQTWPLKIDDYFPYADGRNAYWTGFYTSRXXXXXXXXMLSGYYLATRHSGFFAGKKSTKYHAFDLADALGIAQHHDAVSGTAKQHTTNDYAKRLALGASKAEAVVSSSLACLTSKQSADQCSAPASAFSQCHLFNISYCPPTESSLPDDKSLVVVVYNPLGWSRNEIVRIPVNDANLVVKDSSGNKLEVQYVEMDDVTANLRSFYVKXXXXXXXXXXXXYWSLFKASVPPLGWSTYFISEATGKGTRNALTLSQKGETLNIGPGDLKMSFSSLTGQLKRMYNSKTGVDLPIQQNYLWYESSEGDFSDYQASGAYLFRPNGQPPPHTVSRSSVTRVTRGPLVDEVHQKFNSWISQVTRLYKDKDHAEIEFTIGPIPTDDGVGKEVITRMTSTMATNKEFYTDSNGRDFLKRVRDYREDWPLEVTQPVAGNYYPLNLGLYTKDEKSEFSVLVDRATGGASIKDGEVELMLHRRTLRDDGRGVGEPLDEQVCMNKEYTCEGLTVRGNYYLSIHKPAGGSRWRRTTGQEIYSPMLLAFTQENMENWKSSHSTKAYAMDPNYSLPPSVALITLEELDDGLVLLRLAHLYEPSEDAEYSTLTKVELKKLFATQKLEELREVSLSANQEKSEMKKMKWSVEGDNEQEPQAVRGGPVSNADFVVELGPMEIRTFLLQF
Experimental: as §1, §2

α-D-galactosidase = biological target: T5, α-D-galactosidase (Coffea arabica, UniProt Q42656); experiment: Glycosidase inhibition: α-D-galactosidase; type: biochemical, Green coffee beans (Coffea sp.); conditions: 1 mg/ml; pH 6.5, 20° C
T5 construct: purchased Sigma
T5 sequence (Q42656 16-378): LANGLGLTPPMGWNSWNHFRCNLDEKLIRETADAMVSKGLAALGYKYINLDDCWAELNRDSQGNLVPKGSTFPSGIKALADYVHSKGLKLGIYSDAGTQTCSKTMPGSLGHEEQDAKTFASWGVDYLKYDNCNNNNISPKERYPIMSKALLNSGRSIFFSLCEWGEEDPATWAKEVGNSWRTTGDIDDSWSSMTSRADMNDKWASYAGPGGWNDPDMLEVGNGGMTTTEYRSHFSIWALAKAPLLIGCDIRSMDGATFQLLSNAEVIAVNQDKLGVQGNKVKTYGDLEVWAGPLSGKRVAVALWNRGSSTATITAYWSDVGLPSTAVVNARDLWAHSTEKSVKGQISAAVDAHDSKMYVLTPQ
Experimental: as §1, §2

α-D-glucosidase [4] = experiment: Glycosidase inhibition: α-D-glucosidase (Bacillus); type: biochemical, Bacillus stearothermophilus; conditions: 1 mg/ml; pH 6.0, 20° C
Experimental: as §1, §2

β-D-galactosidase = experiment: Glycosidase inhibition: β-D-galactosidase; type: biochemical, Bovine liver; conditions: 1 mg/ml; pH 7.3, 20° C
Experimental: as §1, §2

HCV = experiment: Cell-based HCV infection NS3 protease FRET assay in DMSO-Huh7 cells; parameters: species or system hepatitis C virus (HCV); conditions: DMSO-Huh7 cells infected with HCV at 0.05 ffu/cell; HCV NS3 protein levels by FRET, day 6 p.i.

T1 sequence (P53341 whole entry): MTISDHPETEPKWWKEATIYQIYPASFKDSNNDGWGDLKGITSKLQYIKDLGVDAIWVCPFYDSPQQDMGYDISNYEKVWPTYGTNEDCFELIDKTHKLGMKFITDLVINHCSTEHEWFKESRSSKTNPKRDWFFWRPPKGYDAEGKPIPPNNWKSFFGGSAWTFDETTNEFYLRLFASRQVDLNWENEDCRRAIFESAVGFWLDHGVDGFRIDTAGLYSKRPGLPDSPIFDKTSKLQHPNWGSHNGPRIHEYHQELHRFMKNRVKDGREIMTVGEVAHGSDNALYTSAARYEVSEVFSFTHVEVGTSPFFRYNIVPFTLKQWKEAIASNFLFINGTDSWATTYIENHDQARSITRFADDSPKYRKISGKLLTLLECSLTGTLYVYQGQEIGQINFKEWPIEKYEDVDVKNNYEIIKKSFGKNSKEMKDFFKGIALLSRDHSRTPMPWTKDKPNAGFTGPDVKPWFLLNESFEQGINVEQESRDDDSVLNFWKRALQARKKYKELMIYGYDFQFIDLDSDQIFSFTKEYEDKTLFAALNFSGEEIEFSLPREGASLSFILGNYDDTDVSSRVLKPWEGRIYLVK

## OC[C@H]1NC[C@H](O)[C@@H](O)[C@@H]1O [Compound 193, 1-deoxynojirimycin, reference compound]
α-D-glucosidase [1]
  % inhibition α-gluc (yeast): 35%
[2]
  % inhibition N-acetyl-β-gluc: 0%
Naringinase
  % inhibition Naringinase: 0%
β-D-glucosidase
  % inhibition β-glucosidase: 64%
α-D-glucosidase [3]
  % inhibition α-gluc (rice): 100%
α-L-fucosidase
  % inhibition α-fucosidase: 0%
α-D-mannosidase
  % inhibition α-mannosidase: 0%
α-D-galactosidase
  % inhibition α-galactosidase: 0%
α-D-glucosidase [4]
  % inhibition α-gluc (Bacillus): 100%
β-D-galactosidase
  % inhibition β-galactosidase: 0%

## CCCCCCCCCN1C[C@@H](O)[C@@H](O)[C@H](O)[C@H](O)C1 [Compound 794, (3R,4R,5R,6R)-1-nonylazepane-3,4,5,6-tetraol]
HCV
  Ave % inhibition: ++++ (++++: 60-79%)

## OC[C@@H](O)[C@@H]1[C@H](O)[C@H](O)CN1Cc1ccccc1 [Compound 799, (2R,3S,4R)-1-benzyl-2-((S)-1,2-dihydroxyethyl)pyrrolidine-3,4-diol]
HCV
  Ave % inhibition: + (+: ≦19%)

## (1S,2S,3S,6R,7R,7aR)-1,6,7-trihydroxy-3-(hydroxymethyl)hexahydro-1H-pyrrolizin-2-yl methanesulfonate [Compound 635]
HCV
  Ave % inhibition: ++ (++: 20-39%)

## (3R,5S)-5-(acetamidomethyl)-1-butylpyrrolidin-3-yl acetate [Compound 546]
HCV
  Ave % inhibition: ++ (++: 20-39%)

## (3R,5S)-5-(acetamidomethyl)-1-nonylpyrrolidin-3-yl acetate [Compound 547]
HCV
  Ave % inhibition: ++++ (++++: 60-79%)

## ((2S,4S)-4-acetamido-1-nonylpyrrolidin-2-yl)methyl acetate [Compound 332]
HCV
  Ave % inhibition: +++++ (+++++: ≧80%)
